Results reported in publication PMC4770715, “LIM kinase inhibitors disrupt mitotic microtubule organization and impair tumor cell proliferation” (Oncotarget, 2015).

Experiments:
Test in all cases: biochemical
Design in all cases: KINOMEscan active-site competition binding, percent of control (100 = no competition)
Details in all cases: competition binding, percent control
ALK = ALK (Homo sapiens, UniProt Q9UM73)
BRSK1 = BRSK1 (Homo sapiens, UniProt Q8TDC3)
BRSK2 = BRSK2 (Homo sapiens, UniProt Q8IWQ3)
CAMK1G = CAMK1G (Homo sapiens, UniProt Q96NX5)
CSNK1A1 = CSNK1A1 (Homo sapiens, UniProt P48729)
EGFR(L747-T751del,Sins) = EGFR(L747-T751del,Sins) (Homo sapiens, UniProt P00533, DEL747-750/T751S)
EPHA1 = EPHA1 (Homo sapiens, UniProt P21709)
Chain of EPHA1 (P21709 whole entry): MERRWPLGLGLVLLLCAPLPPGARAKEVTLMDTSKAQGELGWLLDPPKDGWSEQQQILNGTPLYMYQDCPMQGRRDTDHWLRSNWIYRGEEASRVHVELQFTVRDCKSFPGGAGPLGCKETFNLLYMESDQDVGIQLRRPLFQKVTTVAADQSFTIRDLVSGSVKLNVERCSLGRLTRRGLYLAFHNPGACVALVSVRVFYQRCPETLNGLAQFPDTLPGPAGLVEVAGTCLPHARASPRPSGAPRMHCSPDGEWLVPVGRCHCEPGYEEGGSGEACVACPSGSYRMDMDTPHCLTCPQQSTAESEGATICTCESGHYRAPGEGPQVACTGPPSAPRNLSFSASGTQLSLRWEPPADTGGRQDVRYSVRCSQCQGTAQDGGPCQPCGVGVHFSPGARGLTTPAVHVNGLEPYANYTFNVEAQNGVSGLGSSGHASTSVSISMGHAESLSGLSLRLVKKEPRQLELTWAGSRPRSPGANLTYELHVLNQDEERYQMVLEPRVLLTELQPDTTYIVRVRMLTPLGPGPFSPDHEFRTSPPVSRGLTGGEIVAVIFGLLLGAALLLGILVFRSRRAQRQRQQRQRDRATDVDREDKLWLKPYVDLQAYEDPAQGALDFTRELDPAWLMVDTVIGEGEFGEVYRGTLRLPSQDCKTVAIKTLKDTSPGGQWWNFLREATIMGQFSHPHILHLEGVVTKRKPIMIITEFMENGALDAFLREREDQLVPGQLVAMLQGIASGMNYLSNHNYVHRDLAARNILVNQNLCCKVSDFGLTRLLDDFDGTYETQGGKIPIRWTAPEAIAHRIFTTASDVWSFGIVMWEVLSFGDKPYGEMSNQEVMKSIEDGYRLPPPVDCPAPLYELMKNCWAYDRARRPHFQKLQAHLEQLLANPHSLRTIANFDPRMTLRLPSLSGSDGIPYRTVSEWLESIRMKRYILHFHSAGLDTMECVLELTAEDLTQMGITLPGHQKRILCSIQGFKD

EPHB1 = EPHB1 (Homo sapiens, UniProt P54762)
Chain of EPHB1 (P54762 whole entry): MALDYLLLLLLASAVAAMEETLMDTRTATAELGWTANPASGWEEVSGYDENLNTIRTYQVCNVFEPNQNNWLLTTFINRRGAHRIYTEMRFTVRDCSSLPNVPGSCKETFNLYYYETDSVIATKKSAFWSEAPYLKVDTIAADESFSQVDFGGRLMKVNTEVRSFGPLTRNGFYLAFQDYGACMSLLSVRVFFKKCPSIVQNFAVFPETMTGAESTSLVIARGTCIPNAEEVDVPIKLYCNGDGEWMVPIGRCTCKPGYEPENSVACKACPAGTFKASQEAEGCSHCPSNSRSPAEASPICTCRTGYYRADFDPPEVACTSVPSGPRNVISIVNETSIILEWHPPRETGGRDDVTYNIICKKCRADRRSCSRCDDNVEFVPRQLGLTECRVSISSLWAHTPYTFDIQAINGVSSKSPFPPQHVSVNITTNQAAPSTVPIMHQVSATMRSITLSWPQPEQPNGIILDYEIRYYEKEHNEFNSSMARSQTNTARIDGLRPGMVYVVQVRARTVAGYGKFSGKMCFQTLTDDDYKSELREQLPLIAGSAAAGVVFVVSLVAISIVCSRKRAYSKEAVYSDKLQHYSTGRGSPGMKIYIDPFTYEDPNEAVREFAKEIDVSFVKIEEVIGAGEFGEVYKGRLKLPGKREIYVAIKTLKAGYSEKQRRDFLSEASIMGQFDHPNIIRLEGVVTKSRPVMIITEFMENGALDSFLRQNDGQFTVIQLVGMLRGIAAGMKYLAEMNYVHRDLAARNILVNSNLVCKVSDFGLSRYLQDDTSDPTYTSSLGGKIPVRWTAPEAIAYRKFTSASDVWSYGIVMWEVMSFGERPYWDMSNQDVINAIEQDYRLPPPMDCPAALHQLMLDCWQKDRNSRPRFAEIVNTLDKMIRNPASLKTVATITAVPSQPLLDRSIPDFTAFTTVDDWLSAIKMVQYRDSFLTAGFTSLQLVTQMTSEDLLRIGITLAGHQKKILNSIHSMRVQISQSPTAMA

EPHB2 = EPHB2 (Homo sapiens, UniProt P29323)
Chain of EPHB2 (P29323 whole entry): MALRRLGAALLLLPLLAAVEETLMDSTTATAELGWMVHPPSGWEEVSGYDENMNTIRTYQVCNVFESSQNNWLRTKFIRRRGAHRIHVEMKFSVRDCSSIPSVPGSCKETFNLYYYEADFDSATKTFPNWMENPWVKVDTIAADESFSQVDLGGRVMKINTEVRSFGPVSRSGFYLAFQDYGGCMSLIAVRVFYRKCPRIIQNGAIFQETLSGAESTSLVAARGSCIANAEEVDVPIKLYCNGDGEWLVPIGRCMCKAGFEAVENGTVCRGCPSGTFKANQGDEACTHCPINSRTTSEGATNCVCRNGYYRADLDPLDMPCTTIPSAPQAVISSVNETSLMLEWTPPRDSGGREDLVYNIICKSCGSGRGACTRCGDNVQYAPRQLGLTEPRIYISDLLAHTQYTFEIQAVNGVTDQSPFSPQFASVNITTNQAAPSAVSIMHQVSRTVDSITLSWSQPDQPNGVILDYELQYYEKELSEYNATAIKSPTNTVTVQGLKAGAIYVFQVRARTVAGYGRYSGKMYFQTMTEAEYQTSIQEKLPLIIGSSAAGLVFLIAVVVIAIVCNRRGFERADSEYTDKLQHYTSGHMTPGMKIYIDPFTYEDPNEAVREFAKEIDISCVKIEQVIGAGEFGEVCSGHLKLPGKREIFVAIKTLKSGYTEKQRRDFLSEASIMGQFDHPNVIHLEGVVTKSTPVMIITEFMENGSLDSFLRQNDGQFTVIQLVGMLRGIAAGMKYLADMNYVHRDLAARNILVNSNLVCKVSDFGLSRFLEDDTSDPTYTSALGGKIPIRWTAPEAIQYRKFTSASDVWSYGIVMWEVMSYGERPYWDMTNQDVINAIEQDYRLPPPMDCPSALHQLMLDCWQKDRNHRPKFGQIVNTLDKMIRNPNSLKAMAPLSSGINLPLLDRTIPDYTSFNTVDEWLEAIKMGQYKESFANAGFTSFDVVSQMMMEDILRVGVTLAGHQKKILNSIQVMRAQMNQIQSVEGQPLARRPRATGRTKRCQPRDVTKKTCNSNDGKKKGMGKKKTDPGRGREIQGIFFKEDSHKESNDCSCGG

FLT1 = FLT1 (Homo sapiens, UniProt P17948)
FLT3(D835Y) = FLT3(D835Y) (Homo sapiens, UniProt P36888, D835Y)
GCN2(Kin.Dom.2,S808G) = biological target: T1, GCN2(Kin.Dom.2,S808G) (Homo sapiens, UniProt Q9P2K8, S808G)
T1 construct: gene EIF2AK4; Kin.Dom.2

GRK4 = GRK4 (Homo sapiens, UniProt P32298)
Chain of GRK4 (P32298 whole entry): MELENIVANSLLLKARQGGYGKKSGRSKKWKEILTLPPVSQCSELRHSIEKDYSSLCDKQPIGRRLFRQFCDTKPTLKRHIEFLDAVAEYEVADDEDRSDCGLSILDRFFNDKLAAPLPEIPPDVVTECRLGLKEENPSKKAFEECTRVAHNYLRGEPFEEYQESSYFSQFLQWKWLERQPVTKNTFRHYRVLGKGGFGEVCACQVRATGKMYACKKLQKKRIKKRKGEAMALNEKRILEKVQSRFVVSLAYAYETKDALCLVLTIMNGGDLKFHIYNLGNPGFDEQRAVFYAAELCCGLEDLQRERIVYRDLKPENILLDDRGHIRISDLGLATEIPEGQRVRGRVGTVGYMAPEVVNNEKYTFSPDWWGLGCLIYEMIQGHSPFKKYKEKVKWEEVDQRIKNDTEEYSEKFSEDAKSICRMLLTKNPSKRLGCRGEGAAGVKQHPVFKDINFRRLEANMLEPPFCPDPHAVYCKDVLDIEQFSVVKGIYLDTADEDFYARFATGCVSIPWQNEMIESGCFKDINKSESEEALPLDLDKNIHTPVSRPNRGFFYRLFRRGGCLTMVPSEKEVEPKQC

MET(M1250T) = MET(M1250T) (Homo sapiens, UniProt P08581, M1250T)
Chain of MET(M1250T) (P08581 whole entry M1250T): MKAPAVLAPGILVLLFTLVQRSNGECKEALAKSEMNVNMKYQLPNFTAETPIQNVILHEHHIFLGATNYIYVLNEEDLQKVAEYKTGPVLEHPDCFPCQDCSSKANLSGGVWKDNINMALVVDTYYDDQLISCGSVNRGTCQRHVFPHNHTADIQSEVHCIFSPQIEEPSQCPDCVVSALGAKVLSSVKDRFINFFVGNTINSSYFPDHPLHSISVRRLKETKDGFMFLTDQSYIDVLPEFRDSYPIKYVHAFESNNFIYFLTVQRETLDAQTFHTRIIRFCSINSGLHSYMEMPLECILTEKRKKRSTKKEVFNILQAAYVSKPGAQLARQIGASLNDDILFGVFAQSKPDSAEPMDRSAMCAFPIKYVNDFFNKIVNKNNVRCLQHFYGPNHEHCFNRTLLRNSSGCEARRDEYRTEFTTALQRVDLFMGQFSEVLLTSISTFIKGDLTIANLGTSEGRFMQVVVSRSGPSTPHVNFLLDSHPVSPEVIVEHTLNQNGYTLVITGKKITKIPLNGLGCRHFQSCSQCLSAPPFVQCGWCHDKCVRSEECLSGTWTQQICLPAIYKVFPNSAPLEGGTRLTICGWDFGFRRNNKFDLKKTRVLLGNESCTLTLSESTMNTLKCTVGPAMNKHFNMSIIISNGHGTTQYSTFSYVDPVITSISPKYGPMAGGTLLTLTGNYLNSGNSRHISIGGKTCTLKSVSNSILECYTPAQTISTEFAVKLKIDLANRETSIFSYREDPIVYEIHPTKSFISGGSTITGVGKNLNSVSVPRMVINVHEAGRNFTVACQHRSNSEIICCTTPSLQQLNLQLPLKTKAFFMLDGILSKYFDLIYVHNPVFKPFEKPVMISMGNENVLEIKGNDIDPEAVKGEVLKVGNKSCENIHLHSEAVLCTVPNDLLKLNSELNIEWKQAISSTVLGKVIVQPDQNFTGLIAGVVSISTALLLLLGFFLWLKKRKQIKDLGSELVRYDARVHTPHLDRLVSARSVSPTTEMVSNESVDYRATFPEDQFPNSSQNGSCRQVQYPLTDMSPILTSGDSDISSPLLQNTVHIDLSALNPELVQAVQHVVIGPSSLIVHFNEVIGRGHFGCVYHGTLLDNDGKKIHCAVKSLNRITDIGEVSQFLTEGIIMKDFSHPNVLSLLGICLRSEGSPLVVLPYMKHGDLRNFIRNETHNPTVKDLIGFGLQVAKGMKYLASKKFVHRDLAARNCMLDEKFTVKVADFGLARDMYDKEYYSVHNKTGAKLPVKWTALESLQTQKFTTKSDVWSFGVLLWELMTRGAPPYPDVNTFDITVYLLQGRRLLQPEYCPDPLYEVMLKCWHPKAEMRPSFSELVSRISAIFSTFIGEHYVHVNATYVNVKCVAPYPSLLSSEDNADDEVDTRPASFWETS

MYLK2 = MYLK2 (Homo sapiens, UniProt Q9H1R3)
NEK2 = NEK2 (Homo sapiens, UniProt P51955)
NEK3 = NEK3 (Homo sapiens, UniProt P51956)
NEK6 = NEK6 (Homo sapiens, UniProt Q9HC98)
PFTK1 = biological target: T2, PFTK1 (Homo sapiens, UniProt O94921)
T2 construct: gene CDK14

PIK3C2B = PIK3C2B (Homo sapiens, UniProt O00750)
PIK3CA(H1047L) = PIK3CA(H1047L) (Homo sapiens, UniProt P42336, H1047L)
PIK3CA(H1047Y) = PIK3CA(H1047Y) (Homo sapiens, UniProt P42336, H1047Y)
PRKD2 = PRKD2 (Homo sapiens, UniProt Q9BZL6)

| SMILES | remaining binding at 10 µM (ALK) [%] | remaining binding at 10 µM (BRSK1) [%] | remaining binding at 10 µM (BRSK2) [%] | remaining binding at 10 µM (CAMK1G) [%] | remaining binding at 10 µM (CSNK1A1) [%] | remaining binding at 10 µM (EGFR(L747-T751del,Sins)) [%] | remaining binding at 10 µM (EPHA1) [%] | remaining binding at 10 µM (EPHB1) [%] | remaining binding at 10 µM (EPHB2) [%] | remaining binding at 10 µM (FLT1) [%] | remaining binding at 10 µM (FLT3(D835Y)) [%] | remaining binding at 10 µM (GCN2(Kin.Dom.2,S808G)) [%] | remaining binding at 10 µM (GRK4) [%] | remaining binding at 10 µM (MET(M1250T)) [%] | remaining binding at 10 µM (MYLK2) [%] | remaining binding at 10 µM (NEK2) [%] | remaining binding at 10 µM (NEK3) [%] | remaining binding at 10 µM (NEK6) [%] | remaining binding at 10 µM (PFTK1) [%] | remaining binding at 10 µM (PIK3C2B) [%] | other results |
| --- | --- | --- | --- | --- | --- | --- | --- | --- | --- | --- | --- | --- | --- | --- | --- | --- | --- | --- | --- | --- | --- |
| COc1ccc(-c2cnccc2-c2cnc(NC(=O)C(C)C)s2)c(C(F)(F)F)c1 [CRT0105446, N-{5-[3-(4-Methoxy-2-trifluoromethyl-phenyl)-pyridin-4-yl]-hiazol-2-yl}-isobutyramide] | 89 | 27 | 59 | 99 | 100 | 100 | 100 | 88 | 100 | 80 | 20 | 92 | 100 | 93 | 49 | 100 | 100 | 95 | 51 | 100 | remaining binding at 10 µM (PIK3CA(H1047L)): 100%; remaining binding at 10 µM (PIK3CA(H1047Y)): 94%; remaining binding at 10 µM (PRKD2): 74% |
| Cc1ccc(-c2cnccc2-c2cnc(Nc3ccc(O)cc3)s2)c(Cl)c1 [CRT0105950, 4-{5-[3-(2-Chloro-4-methyl-phenyl)-pyridin-4-yl]-thiazol-2-ylamino}-phenol] | 20 | 30 | 33 | 57 | 88 | 68 | 74 | 80 | 81 | 21 | 1.2 | 94 | 89 | 19 | 49 | 82 | 88 | 100 | 47 | 100 | remaining binding at 10 µM (PIK3CA(H1047L)): 97%; remaining binding at 10 µM (PIK3CA(H1047Y)): 93%; remaining binding at 10 µM (PRKD2): 26% |
